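1) Cells in 96-well plates. 2) Compound, 48 h, 5 concentrations. 3) Linear interpolation between surrounding doses. 4) Unreached endpoint = highest concentration. GI50 marks 50% less growth.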 Calls of active or inactive are those of the source. Rule as the data show it: active = GI50 up to about 1.1 µM and inactive = higher.
Tests used:
Assay in all cases: NCI anticancer screen, dose series, 48 h
A498 = tested on: A498
OVCAR-8 = tested on: OVCAR-8
NCI-H460 = tested on: NCI-H460
CAKI-1 = tested on: CAKI-1
IGROV-1 = tested on: IGROV-1
HOP-92 = tested on: HOP-92
HCT-15 = tested on: HCT-15
SK-MEL-5 = tested on: SK-MEL-5
SK-MEL-28 = tested on: SK-MEL-28
SW-620 = tested on: SW-620
SNB-75 = tested on: SNB-75
HOP-62 = tested on: HOP-62
NCI/ADR-RES = tested on: NCI/ADR-RES
SR = tested on: SR
A549 = tested on: A549
CCRF-CEM = tested on: CCRF-CEM
TK-10 = tested on: TK-10
RPMI-8226 = tested on: RPMI-8226
SF-268 = tested on: SF-268
HCT-116 = tested on: HCT-116

SMILES	GI50 (A498)	GI50 (OVCAR-8)	GI50 (NCI-H460)	GI50 (CAKI-1)	GI50 (IGROV-1)	GI50 (HOP-92)	GI50 (HCT-15)	GI50 (SK-MEL-5)	GI50 (SK-MEL-28)	GI50 (SW-620)	GI50 (SNB-75)	GI50 (HOP-62)	GI50 (NCI/ADR-RES)	GI50 (SR)	GI50 (A549)	GI50 (CCRF-CEM)	GI50 (TK-10)	GI50 (RPMI-8226)	GI50 (SF-268)	GI50 (HCT-116)
O=C(NCCN1CCCCC1)c1ccc(I)cc1	24.8 µM (inactive)	> 100 µM (inactive)	> 100 µM (inactive)	> 100 µM (inactive)	> 100 µM (inactive)	96.4 µM (inactive)	> 100 µM	33.9 µM (inactive)	> 100 µM (inactive)	> 100 µM (inactive)	89.3 µM (inactive)	> 100 µM (inactive)	> 100 µM (inactive)	> 100 µM (inactive)	> 100 µM (inactive)	> 100 µM (inactive)	> 100 µM (inactive)	> 100 µM (inactive)	> 100 µM (inactive)	> 100 µM (inactive)
COc1ccc(OC)c([N+](=O)[O-])c1-c1nc2sc(Cl)cn2c1/C=N/N=C(N)N	14.1 µM (inactive)	19.2 µM (inactive)	20.7 µM (inactive)	17.1 µM (inactive)	12.9 µM (inactive)	10.1 µM (inactive)	41.2 µM	14.4 µM (inactive)	13.9 µM (inactive)	20.2 µM (inactive)	10.1 µM (inactive)	55.8 µM (inactive)	> 100 µM (inactive)	14.2 µM (inactive)	23.2 µM (inactive)	30.9 µM (inactive)	25.2 µM (inactive)	26.9 µM (inactive)	20.8 µM (inactive)	58.3 µM (inactive)
COc1cccc(CCNc2c(C#N)c3nc4ccccc4n3c3ccccc23)c1	0.592 µM (active)	0.807 µM (active)	0.378 µM (active)	1.05 µM (active)	0.433 µM (active)	29.6 µM (inactive)	0.423 µM	0.186 µM (active)	1.22 µM (inactive)	0.51 µM (active)	0.404 µM (active)	10.5 µM (inactive)	0.333 µM (active)	0.177 µM (active)	1.33 µM (inactive)	0.736 µM (active)	4.6 µM (inactive)	0.426 µM (active)	2.06 µM (inactive)	0.405 µM (active)
COc1cc2c[n+](C)c3c4cc(OC)c(OCc5ccccc5)cc4c(OCc4ccccc4)cc3c2cc1OC	48 µM (inactive)	6.85 µM (inactive)	33 µM (inactive)	35.2 µM (inactive)	1.69 µM (inactive)	1.84 µM (inactive)	97.9 µM	2.08 µM (inactive)	5.48 µM (inactive)	3.18 µM (inactive)	4.46 µM (inactive)	13.8 µM (inactive)	84.7 µM (inactive)	1.4 µM (inactive)	30 µM (inactive)	4.68 µM (inactive)	23.3 µM (inactive)	25.7 µM (inactive)	3.44 µM (inactive)	3.76 µM (inactive)
COc1ccc(Oc2nc3cc(C(F)(F)F)ccc3nc2C(C)C)cc1	20 µM (inactive)	25.2 µM (inactive)	23.2 µM (inactive)	35.2 µM (inactive)	23.3 µM (inactive)	17.2 µM (inactive)	23.8 µM	22.2 µM (inactive)	48 µM (inactive)	30.8 µM (inactive)	25.4 µM (inactive)	40.4 µM (inactive)	19.4 µM (inactive)	16.7 µM (inactive)	31.1 µM (inactive)	39.6 µM (inactive)	81.7 µM (inactive)	19.4 µM (inactive)	32.7 µM (inactive)	31 µM (inactive)

Source: ChEMBL document CHEMBL1201862, “PubChem BioAssay data set” (2004)
